From ChEMBL document CHEMBL1141551, “Discovery of novel PRL-3 inhibitors based on the structure-based virtual screening” (Bioorg Med Chem Lett, 2008) come the findings set out here.

In this assay the target is Protein tyrosine phosphatase type IVA 3 (Homo sapiens, UniProt O75365). Description: Inhibition of human PRL3 expressed in Escherichia coli BL21 (DE3).
Sequence of Protein tyrosine phosphatase type IVA 3 (O75365 whole entry): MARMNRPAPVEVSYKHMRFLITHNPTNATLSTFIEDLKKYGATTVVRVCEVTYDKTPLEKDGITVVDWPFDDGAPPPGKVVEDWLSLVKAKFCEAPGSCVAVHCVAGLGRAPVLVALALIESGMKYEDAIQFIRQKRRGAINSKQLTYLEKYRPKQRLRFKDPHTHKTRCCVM

As for `COc1ccc(-n2nnnc2SCC(=O)c2ccc(O)c(O)c2)cc1`, the IC50 (usually the concentration needed to halve the response being measured) turned out to be 44.7 µM.

`N#CC1=C(S)N(c2ccccc2)C(/C=C/c2ccc(-c3ccc(Cl)cc3)o2)NC1=O` (stereo not given) yielded an IC50 of 18.3 µM.

For `O=C1NC(=S)S/C1=C/c1ccc(-c2ccccc2C(=O)O)o1`, the IC50 was determined as 13.3 µM.

In the case of `C=CCn1c(SCC(=O)c2ccc(O)c(O)c2)nnc1-c1cccc(Cl)c1`, the midpoint of inhibition, the IC50, lay at 43.8 µM.

On to `O=C1NC(=O)/C(=C\c2cccn2-c2ccc(C(=O)O)cc2)N1`, for which it took 28.1 µM to reach half-maximal inhibition (IC50).
